Key:
[1] = molecular target: T1, sodium-dependent GABA binding sites (Mus musculus); assay: displacement of 3H-GABA from sodium-dependent GABA binding sites in mouse brain membranes (GABA reuptake inactivation process); conditions: read-out: Concentration of the test compound showing 50% inhibition of labelled ligand binding
T1 construct: from tissue; host or cells: mouse brain membranes
Method: (§1) The novel compound prepared above was investigated for its potency in interaction with GABA receptor sites in BRAIN. As described in detail in Roberts et. al. J. Neuroscience, Vol. 1, No. 2, pp. 132-140 (1981), two experiments were performed: (1) the potency of the compound in displacing ^3 H-muscimol, a known GABA agonist, from specific GABA receptor sites in mouse brain membranes, and (2) the potency in displacing ^3 H-GABA from sodium-dependent GABA binding sites in mouse brain membranes, which reflects potency for the GABA reuptake inactivation process. […] This reflects very good potency for the compound prepared in Example 4.

GABA receptor sites = assay: displacement of 3H-muscimol from specific GABA receptor sites in mouse brain membranes; conditions: read-out: Concentration of the test compound showing 50% inhibition of labelled ligand binding
Method: as §1

NCCC(C(=O)O)C1COC(=O)C1 (stereo not drawn) [Example 4, α-(2-aminoethyl)tetrahydro-5-oxo-3-furan acetic acid]
IC50 [1]: 25 µM
IC50 (GABA receptor sites): 2.1 µM
